The structures appear in SMILES notation. Read-outs that look alike come from different tables or passages of the source.

The target of assay [1] is T1, PI3K alfa (Homo sapiens, UniProt P42336).
T1 construct: His tag (C); made in house; host or cells: baculovirus BV1075; Tn5 (Trichoplusia ni) or TiniPro insect cells
The assay can be described thus: PI3K alpha kinase assay (Kinase-Glo luminescence). It is filed as biochemical. The procedure: (§1) In a more preferred assay, the kinase reaction is performed in a final volume of 10 μL per well of a low volume non binding CORNING, 384 well black plate (Cat. No. #3676). The final concentrations of ATP and phosphatidyl inositol (PI) in the assay are 1 μM and 10 μg/mL respectively. The reaction is started by the addition of ATP.
(§2) The components of the assay are added per well as follows:
(§3) 50 nL test compounds in 90% DMSO per well, in columns 1-20, 8 concentrations (⅓ and 1/3.33 serial dilution step) in single. • Low control: […] of 90% DMSO in half the wells of columns 23-24 (0.45% in final). • High control: 50 nL of reference compound (e.g. compound of Example 7 in WO 2006/122806) in the other half of columns 23-24 (2.5 μM in final). • Standard: 50 nL of reference compound as just mentioned diluted as the test compounds in columns 21-22 • 20 mL ‘buffer’ are prepared per assay: • 200 μL of 1M TRIS HCl pH7.5 (10 mM in final) • 60 μL of 1M MgCl2 (3 mM in final) • 500 μL of 2M NaCl (50 mM in final) • 100 μL of 10% CHAPS (0.05% in final) • 200 μL of 100 mM DTT (1 mM in final) • 18.94 mL of nanopure water • 10 mL ‘PI’ are prepared per assay: • 200 μL of 1 mg/ml L-alpha-Phosphatidylinositol (Liver Bovine, Avanti Polar Lipids Cat. No. 840042C MW=909.12) prepared in 3% OctylGlucoside (10 μg/ml in final) • 9.8 mL of ‘buffer’ • 10 mL ‘ATP’ are prepared per assay: • 6.7 μL of 3 mM stock of ATP giving a final concentration of 1 μM per well • 10 mL of ‘buffer’ • 2.5 mL of each PI3K construct are prepared per assay in ‘PI’ with the following final concentration: • 10 nM PI3K alfa EMV B1075 • 25 nM beta EMV BV949 • 10 nM delta EMV BV1060 • 150 nM gamma EMV BV950 • 5 μL of ‘PI/PI3K’ are added per well. • 5 μl ‘ATP’ are added per well to start the reaction. • The plates are then incubated at room temperature for 60 minutes (alfa, beta, delta) or 120 minutes (gamma). • The reaction is terminated by the addition of 10 μL Kinase-Glo (Promega Cat. No. #6714). • The assay plates are read after 10 minutes in Synergy 2 reader (BioTek, Vermont USA) with an integration time of 100 milliseconds and sensitivity set to 191. • Output: The High control is around 60′000 counts and the Low control is 30′000 or lower • This luminescence assay gives a useful Z′ ratio between 0.4 and 0.7
Two different constructs, BV 1052 and BV 1075, are used to generate the PI3 Kinase α proteins for compound screening.
PI3K alpha is purified in three chromatographic steps: immobilized metal affinity chromatography on a Ni Sepharose resin (GE Healthcare, belonging to General Electric Company, Fairfield, Conn., USA), gel filtration utilizing a Superdex 200 26/60 column (GE Healthcare), and finally a cation exchange step on a SP-XL column (GE Healthcare). All buffers are chilled to 4° C. and lysis is performed chilled on ice. Column fractionation is performed rapidly at room temperature.
IC50 is determined by a four parameter curve fitting routine that comes along with “excel fit”. A 4 Parameter logistic equation is used to calculate IC50 values (IDBS XLfit) of the percentage inhibition of each compound at 8 concentrations (usually 10, 3.0, 1.0, 0.3, 0.1, 0.030, 0.010 and 0.003 μM). Alternatively, IC50 values are calculated using idbsXLfit model 204, which is a 4 parameter logistic model.
A general note: Kinase-Glo reads ATP consumption through a luciferase reaction.

Assay [2] deals with T2, PI3K delta (Homo sapiens, UniProt O00329).
T2 construct: for the full-length p110-d subunit are generated and fused by overlapping PCR; His tag (C); made in house; host or cells: baculovirus BV1060; Tn5 (Trichoplusia ni) or TiniPro insect cells
The assay can be described thus: PI3K delta kinase assay (Kinase-Glo luminescence). Type of assay: biochemical. As to the method: as §1, §2, §3
PI3Kδ BV-1060 p85(iSH2)-Gly Linker-p110d(Full-Length)-C-Term His Tag
PI3K delta is purified in three chromatographic steps: immobilized metal affinity chromatography on a Ni Sepharose resin (GE Healthcare), gel filtration utilizing a Superdex 200 26/60 column (GE Healthcare), and finally a anion exchange step on a Q-HP column (GE Healthcare). All buffers are chilled to 4° C. and lysis is performed chilled on ice. Column fractionation is performed rapidly at room temperature. Typically frozen insect cells are lysed in a hypertonic lysis buffer and applied to a prepared IMAC column. The resin is washed with 3-5 column volumes of lysis buffer, followed by 3-5 column volumes wash buffer containing 45 mM imidazole, and the target protein is then eluted with a buffer containing 250 mM imidazole. Fractions are analyzed by Coomassie stained SDS-PAGE gels, and fractions containing the target protein are pooled and applied to a prepared GFC column. Fractions from the GFC column are analyzed by Coomassie stained SDS-PAGE gels, and fractions containing the target protein are pooled. The pool from the GFC column is diluted into a low salt buffer and applied to a prepared Q-HP column. The column is washed with low salt buffer until a stable A280 baseline absorbance is achieved, and eluted using a 20 column volume gradient from 0 mM NaCl to 500 mM NaCl. Again, fractions from the Q-HP column are analyzed by Coomassie stained SDS-PAGE gels, and fractions containing the target protein are pooled. The final pool is dialyzed into a storage buffer containing 50% glycerol and stored at −20° C. The final pool is assayed for activity in the phosphoinostitol kinase assay. […]

T1 sequence (P42336 with tags, fused parts or gaps limits assumed): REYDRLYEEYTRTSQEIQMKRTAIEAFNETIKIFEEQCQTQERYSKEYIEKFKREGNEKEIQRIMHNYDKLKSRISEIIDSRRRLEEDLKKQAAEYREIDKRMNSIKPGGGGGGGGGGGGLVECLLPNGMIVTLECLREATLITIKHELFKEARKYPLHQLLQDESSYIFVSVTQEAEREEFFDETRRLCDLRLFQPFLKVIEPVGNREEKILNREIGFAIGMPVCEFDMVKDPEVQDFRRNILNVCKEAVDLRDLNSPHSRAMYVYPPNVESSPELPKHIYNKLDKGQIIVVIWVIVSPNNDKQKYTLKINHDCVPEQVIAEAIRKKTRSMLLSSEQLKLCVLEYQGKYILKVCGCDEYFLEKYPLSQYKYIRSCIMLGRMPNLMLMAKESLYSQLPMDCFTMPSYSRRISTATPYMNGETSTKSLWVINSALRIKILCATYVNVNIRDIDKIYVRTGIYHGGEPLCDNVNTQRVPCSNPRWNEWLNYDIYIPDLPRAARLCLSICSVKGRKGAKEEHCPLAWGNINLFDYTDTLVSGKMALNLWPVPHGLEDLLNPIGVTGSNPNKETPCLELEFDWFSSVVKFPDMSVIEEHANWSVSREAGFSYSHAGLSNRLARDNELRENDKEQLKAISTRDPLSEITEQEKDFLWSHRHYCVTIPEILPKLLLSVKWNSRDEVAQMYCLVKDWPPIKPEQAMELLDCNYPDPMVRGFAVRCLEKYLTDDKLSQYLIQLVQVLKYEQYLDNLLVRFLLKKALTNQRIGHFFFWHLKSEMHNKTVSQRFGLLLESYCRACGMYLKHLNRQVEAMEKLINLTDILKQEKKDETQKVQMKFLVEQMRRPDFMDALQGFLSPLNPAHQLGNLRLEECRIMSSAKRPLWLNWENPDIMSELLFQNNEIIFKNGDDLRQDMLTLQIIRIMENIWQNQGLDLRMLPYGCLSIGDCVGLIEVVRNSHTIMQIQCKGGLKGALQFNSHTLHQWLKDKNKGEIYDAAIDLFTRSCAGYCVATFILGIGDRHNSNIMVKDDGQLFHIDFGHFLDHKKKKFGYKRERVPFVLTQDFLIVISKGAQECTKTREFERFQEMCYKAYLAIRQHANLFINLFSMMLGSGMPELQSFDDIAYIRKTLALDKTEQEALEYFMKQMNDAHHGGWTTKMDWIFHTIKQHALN
T2 sequence (O00329 with tags, fused parts or gaps limits assumed): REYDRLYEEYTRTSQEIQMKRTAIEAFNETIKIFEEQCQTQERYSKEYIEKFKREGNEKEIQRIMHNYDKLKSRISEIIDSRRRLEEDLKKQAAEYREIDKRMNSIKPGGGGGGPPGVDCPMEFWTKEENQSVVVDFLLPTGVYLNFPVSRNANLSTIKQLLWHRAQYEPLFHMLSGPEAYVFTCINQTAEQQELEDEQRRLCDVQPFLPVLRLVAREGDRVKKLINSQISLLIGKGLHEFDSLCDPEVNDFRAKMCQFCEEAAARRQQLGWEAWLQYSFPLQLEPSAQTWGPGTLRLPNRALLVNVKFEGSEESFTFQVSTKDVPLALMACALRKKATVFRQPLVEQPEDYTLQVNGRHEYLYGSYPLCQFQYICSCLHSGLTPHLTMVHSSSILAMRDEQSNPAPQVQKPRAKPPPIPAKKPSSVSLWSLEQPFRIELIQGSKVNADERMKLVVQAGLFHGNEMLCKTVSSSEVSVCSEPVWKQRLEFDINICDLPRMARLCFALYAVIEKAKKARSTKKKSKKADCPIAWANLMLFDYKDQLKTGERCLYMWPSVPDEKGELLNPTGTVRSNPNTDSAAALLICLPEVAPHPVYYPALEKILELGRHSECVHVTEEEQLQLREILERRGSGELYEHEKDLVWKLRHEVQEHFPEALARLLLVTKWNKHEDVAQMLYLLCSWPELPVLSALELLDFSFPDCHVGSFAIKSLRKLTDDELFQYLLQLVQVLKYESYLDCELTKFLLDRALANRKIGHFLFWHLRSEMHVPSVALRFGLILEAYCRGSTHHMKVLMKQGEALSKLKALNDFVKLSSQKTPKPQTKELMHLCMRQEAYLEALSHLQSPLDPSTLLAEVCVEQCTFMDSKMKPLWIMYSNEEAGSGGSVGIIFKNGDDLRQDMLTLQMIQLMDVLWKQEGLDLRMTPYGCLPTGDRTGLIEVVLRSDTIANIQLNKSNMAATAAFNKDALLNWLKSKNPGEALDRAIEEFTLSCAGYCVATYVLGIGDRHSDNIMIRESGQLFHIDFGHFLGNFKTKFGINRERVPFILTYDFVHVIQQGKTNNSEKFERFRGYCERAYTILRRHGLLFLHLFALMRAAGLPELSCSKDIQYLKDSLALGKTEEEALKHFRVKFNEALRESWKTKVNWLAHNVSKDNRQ

In the case of `COc1ncccc1-n1c(=O)n(C)c2cnc3ccc(-c4cnc5[nH]ccc5c4)cc3c21` [Example 1.2, 1-(2-Methoxy-pyridin-3-yl)-3-methyl-8-(1H-pyrrolo[2,3-b]pyridin-5-yl)-1,3-dihydro-imidazo[4,5-c]quinolin-2-one], the IC50 worked out at 15 nM in assay [1] (read-out: PI3Kalfa/IC50) and 13 nM in assay [2] (read-out: PI3Kdelta/IC50).

For `COc1ncccc1-n1c(=O)n(C)c2cnc3ccc(-c4ccc(C(N)=O)cc4)cc3c21` [Example 1.6, 4-[1-(2-Methoxy-pyridin-3-yl)-3-methyl-2-oxo-2,3-dihydro-1H-imidazo[4,5-c]quinolin-8-yl]-benzamide], the IC50 was 17 nM in assay [1] (read-out: PI3Kalfa/IC50) and 163 nM in assay [2] (read-out: PI3Kdelta/IC50).

With `Cc1ncccc1-n1c(=O)n(C)c2cnc3ccc(-c4ccc(C(N)=O)cc4)cc3c21` [Example 2.3, 4-[3-Methyl-1-(2-methyl-pyridin-3-yl)-2-oxo-2,3-dihydro-1H-imidazo[4,5-c]quinolin-8-yl]-benzamide], the IC50 in assay [1] (read-out: PI3Kalfa/IC50) worked out at 20 nM; in assay [2] (read-out: PI3Kdelta/IC50) it was 93 nM. With `CCOc1ncc(-c2ccc3ncc4c(c3c2)n(-c2cccnc2C)c(=O)n4C)cn1` [Example 2.5, 8-(2-Ethoxy-pyrimidin-5-yl)-3-methyl-1-(2-methyl-pyridin-3-yl)-1,3-dihydro-imidazo[4,5-c]quinolin-2-one], the IC50 is 119 nM in assay [1] (read-out: PI3Kalfa/IC50) and 58 nM in assay [2] (read-out: PI3Kdelta/IC50). Regarding `Cc1ncccc1-n1c(=O)n(C)c2cnc3ccc(-c4ccc(CO)nc4)cc3c21` [Example 2.6, 8-(6-Hydroxymethyl-pyridin-3-yl)-3-methyl-1-(2-methyl-pyridin-3-yl)-1,3-dihydro-imidazo[4,5-c]quinolin-2-one], the IC50 in assay [1] (read-out: PI3Kalfa/IC50) was 100 nM; in assay [2] (read-out: PI3Kdelta/IC50), 59 nM. The like results for `Cc1ncccc1-n1c(=O)n(C)c2cnc3ccc(-c4ccc(N)nc4)cc3c21` [Example 2.7, 8-(6-Amino-pyridin-3-yl)-3-methyl-1-(2-methyl-pyridin-3-yl)-1,3-dihydro-imidazo[4,5-c]quinolin-2-one] were, in that order, 18 nM and 35 nM. The like results for `COc1ccc(-c2ccc3ncc4c(c3c2)n(-c2cccnc2C)c(=O)n4C)cc1OC` [Example 2.9, 8-(3,4-Dimethoxy-phenyl)-3-methyl-1-(2-methyl-pyridin-3-yl)-1,3-dihydro-imidazo[4,5-c]quinolin-2-one] were, in that order, 12 nM and 37 nM. With `Cc1ncccc1-n1c(=O)n(C)c2cnc3ccc(-c4ccc(OCCCN(C)C)nc4)cc3c21` [Example 2.10, 8-[6-(3-Dimethylamino-propoxy)-pyridin-3-yl]-3-methyl-1-(2-methyl-pyridin-3-yl)-1,3-dihydro-imidazo[4,5-c]quinolin-2-one], the IC50 in assay [2] (read-out: PI3Kdelta/IC50) worked out at 855 nM. On to `Cc1ncccc1-n1c(=O)n(C)c2cnc3ccc(-c4cnc(N)c(C(F)(F)F)c4)cc3c21` [Example 2.11, 8-(6-Amino-5-trifluoromethyl-pyridin-3-yl)-3-methyl-1-(2-methyl-pyridin-3-yl)-1,3-dihydro-imidazo[4,5-c]quinolin-2-one], for which the IC50 in assay [1] (read-out: PI3Kalfa/IC50) is 7 nM; in assay [2] (read-out: PI3Kdelta/IC50), 12 nM. The like results for `COc1ccc(-c2ccc3ncc4c(c3c2)n(-c2cccnc2C)c(=O)n4C)cn1` [Example 2.12, 8-(6-Methoxy-pyridin-3-yl)-3-methyl-1-(2-methyl-pyridin-3-yl)-1,3-dihydro-imidazo[4,5-c]quinolin-2-one] were, in that order, 26 nM and 32 nM. For the molecule `CNc1ccc(-c2ccc3ncc4c(c3c2)n(-c2cccnc2C)c(=O)n4C)cn1` [Example 2.13, 3-Methyl-8-(6-methylamino-pyridin-3-yl)-1-(2-methyl-pyridin-3-yl)-1,3-dihydro-imidazo[4,5-c]quinolin-2-one], the IC50 came to 14 nM in assay [1] (read-out: PI3Kalfa/IC50) and 20 nM in assay [2] (read-out: PI3Kdelta/IC50).

Consider `Cc1ncccc1-n1c(=O)n(C)c2cnc3ccc(-c4cnc(N(C)C)nc4)cc3c21` [Example 2.15, 8-(2-Dimethylamino-pyrimidin-5-yl)-3-methyl-1-(2-methyl-pyridin-3-yl)-1,3-dihydro-imidazo[4,5-c]quinolin-2-one], for which the IC50 in assay [1] (read-out: PI3Kalfa/IC50) was found to be 35 nM; in assay [2] (read-out: PI3Kdelta/IC50), 32 nM. As for `Cc1ncccc1-n1c(=O)n(C)c2cnc3ccc(-c4cncc(NC(C)C)c4)cc3c21` [Example 2.24, 8-(5-Isopropylamino-pyridin-3-yl)-3-methyl-1-(2-methyl-pyridin-3-yl)-1,3-dihydro-imidazo[4,5-c]quinolin-2-one], the IC50 is 28 nM in assay [1] (read-out: EPK_PI3Kalfa/IC50) and 31 nM in assay [2] (read-out: EPK_PI3Kdelta/IC50).

Turning to `Cc1ncccc1-n1c(=O)n(C)c2cnc3ccc(-c4cncc(N)c4)cc3c21` [Example 2.25, 8-(5-Amino-pyridin-3-yl)-3-methyl-1-(2-methyl-pyridin-3-yl)-1,3-dihydro-imidazo[4,5-c]quinolin-2-one], the IC50 came to 64 nM in assay [1] (read-out: EPK_PI3Kalfa/IC50) and 57 nM in assay [2] (read-out: EPK_PI3Kdelta/IC50). As for `CNc1cncc(-c2ccc3ncc4c(c3c2)n(-c2cccnc2C)c(=O)n4C)c1` [Example 2.26, 3-Methyl-8-(5-methylamino-pyridin-3-yl)-1-(2-methyl-pyridin-3-yl)-1,3-dihydro-imidazo[4,5-c]quinolin-2-one], the IC50 in assay [1] (read-out: EPK_PI3Kalfa/IC50) worked out at 14 nM; in assay [2] (read-out: EPK_PI3Kdelta/IC50), 46 nM. For the molecule `CNC(=O)c1ccc(-c2ccc3ncc4c(c3c2)n(-c2ncccc2C)c(=O)n4C)cc1` [Example 3.5, N-Methyl-4-[3-methyl-1-(3-methyl-pyridin-2-yl)-2-oxo-2,3-dihydro-1H-imidazo[4,5-c]quinolin-8-yl]-benzamide], in assay [1] (read-out: PI3Kalfa/IC50), the IC50 is 53 nM.

On to `CCOc1ccc(-c2ccc3ncc4c(c3c2)n(-c2ncccc2C)c(=O)n4C)cn1` [Example 3.6, 8-(6-Ethoxy-pyridin-3-yl)-3-methyl-1-(3-methyl-pyridin-2-yl)-1,3-dihydro-imidazo[4,5-c]quinolin-2-one], for which, in assay [1] (read-out: PI3Kalfa/IC50), the IC50 was 206 nM. The same measure, in the same setting: then `Cc1cccnc1-n1c(=O)n(C)c2cnc3ccc(-c4ccc(N(C)C)nc4)cc3c21` [Example 3.11, 8-(6-Dimethylamino-pyridin-3-yl)-3-methyl-1-(3-methyl-pyridin-2-yl)-1,3-dihydro-imidazo[4,5-c]quinolin-2-one], with 321 nM.
